The test system of assay [1] is 786-O humanized renal clear cell xenograft. Put plainly: Tumor-inhibiting effect on 786-O xenograft tumor-bearing mice (Experimental Example 4). The format is in vivo, SCID-Beige nude mice. The note with it: QD × 14 days, free form; for TGI: from tumor weight. As to the method: 786-O cells were cultured in RPMI-1640 culture medium containing inactivated 10% fetal bovine serum, 100 Um′ penicillin and 100 μg/ml streptomycin as well as 2 mM glutamine in an incubator at 37° C., 5% CO2. During cell culture, the initial concentration was 5×10^5 cells/ml, and the cells were separated into other bottles every 3 to 4 days when the cells reached a cell density of 100%. The tumor cells in logarithmic growth phase were used in tumor inoculation in vivo.
Female SCID-Beige nude mice (SPF grade) was inoculated subcutaneously at right lateral thorax with 786-O tumor cells re-suspended in PBS at 8×10^6 cells/0.1 ml. When the tumor grew into a volume of 800 mm^3, under aseptic conditions, tumor was peeled off. The well grown tumor tissues were cut into tumor mass with a size of 2×2×2 mm^3, and then were used to inoculate animal subcutaneously. When the tumor grew to a volume of about 100 mm^3, the mice were grouped and administered, 5 groups in total, 8 mice per group.
The volume of tumor was measure by using Vernier caliper twice a week. The long diameter and short diameter of tumor were measured. The volume was calculated by the formula: volume=0.5×long diameter×short diameter^2. After the final measurement, the animal was sacrificed and the tumor was peeled off and weighed. Based on the tumor weight of each group, tumor growth-inhibiting rate (TGI) was calculated. […] The data was effectiveness when TGI≧60% and p<0.05 by statistical analysis.

Another assay deals with HCT116 xenograft. Put plainly: Tumor-inhibiting effect on HCT116 xenograft tumor-bearing mice (Experimental Example 5). The note with it: QD × 14 day, free form; for TGI: from tumor weight. The format is in vivo, Balb/c nude mice. As to the method: HCT116 cells were cultured in McCoy's 5a culture medium containing inactivated 10% fetal bovine serum, 100 Um′ penicillin and 100 μg/ml streptomycin as well as 2 mM glutamine in an incubator at 37° C., 5% CO2. During cell culture, the initial concentration was 5×10^5 cells/ml, and the cells were separated into other bottles every 3 to 4 days when the cells reached a cell density of 100%. The tumor cells in logarithmic growth phase were used in tumor inoculation in vivo.
Balb/c nude mice was inoculated subcutaneously at right lateral thorax with HCT116 tumor cells re-suspended in PBS at 1.0×10^7 cells/0.1 ml. When the tumor grew into a volume of 800 mm^3, the animal was sacrificed and under aseptic conditions, tumor was peeled off. The well grown tumor tissues were cut into tumor mass with a size of 2×2×2 mm^3, and then were used to inoculate animal at right lateral thorax subcutaneously. 60 animals were inoculated. When the tumor grew into a volume of about 110 mm^3, the mice were grouped and administered, 5 groups in total, 8 mice per group.
The volume of tumor was measured by using Vernier caliper twice a week. The long diameter and short diameter of tumor were measured. The volume was calculated by the formula: volume=0.5× long diameter×short diameter^2. After the final measurement, the animal was sacrificed and the tumor was peeled off and weighed. Based on the tumor weight, tumor growth-inhibiting rate (TGI) was calculated. […] When the assay was finished, the experimental animal was subjected to euthanasia.

Another assay addresses VEGFR2 (Homo sapiens (Human), UniProt P35968). Put plainly: Inhibitory activity of VEGFR2 kinase (HTRF KinEASE-TK kit). The format is biochemical.

Chain of VEGFR2 (P35968 20-1356): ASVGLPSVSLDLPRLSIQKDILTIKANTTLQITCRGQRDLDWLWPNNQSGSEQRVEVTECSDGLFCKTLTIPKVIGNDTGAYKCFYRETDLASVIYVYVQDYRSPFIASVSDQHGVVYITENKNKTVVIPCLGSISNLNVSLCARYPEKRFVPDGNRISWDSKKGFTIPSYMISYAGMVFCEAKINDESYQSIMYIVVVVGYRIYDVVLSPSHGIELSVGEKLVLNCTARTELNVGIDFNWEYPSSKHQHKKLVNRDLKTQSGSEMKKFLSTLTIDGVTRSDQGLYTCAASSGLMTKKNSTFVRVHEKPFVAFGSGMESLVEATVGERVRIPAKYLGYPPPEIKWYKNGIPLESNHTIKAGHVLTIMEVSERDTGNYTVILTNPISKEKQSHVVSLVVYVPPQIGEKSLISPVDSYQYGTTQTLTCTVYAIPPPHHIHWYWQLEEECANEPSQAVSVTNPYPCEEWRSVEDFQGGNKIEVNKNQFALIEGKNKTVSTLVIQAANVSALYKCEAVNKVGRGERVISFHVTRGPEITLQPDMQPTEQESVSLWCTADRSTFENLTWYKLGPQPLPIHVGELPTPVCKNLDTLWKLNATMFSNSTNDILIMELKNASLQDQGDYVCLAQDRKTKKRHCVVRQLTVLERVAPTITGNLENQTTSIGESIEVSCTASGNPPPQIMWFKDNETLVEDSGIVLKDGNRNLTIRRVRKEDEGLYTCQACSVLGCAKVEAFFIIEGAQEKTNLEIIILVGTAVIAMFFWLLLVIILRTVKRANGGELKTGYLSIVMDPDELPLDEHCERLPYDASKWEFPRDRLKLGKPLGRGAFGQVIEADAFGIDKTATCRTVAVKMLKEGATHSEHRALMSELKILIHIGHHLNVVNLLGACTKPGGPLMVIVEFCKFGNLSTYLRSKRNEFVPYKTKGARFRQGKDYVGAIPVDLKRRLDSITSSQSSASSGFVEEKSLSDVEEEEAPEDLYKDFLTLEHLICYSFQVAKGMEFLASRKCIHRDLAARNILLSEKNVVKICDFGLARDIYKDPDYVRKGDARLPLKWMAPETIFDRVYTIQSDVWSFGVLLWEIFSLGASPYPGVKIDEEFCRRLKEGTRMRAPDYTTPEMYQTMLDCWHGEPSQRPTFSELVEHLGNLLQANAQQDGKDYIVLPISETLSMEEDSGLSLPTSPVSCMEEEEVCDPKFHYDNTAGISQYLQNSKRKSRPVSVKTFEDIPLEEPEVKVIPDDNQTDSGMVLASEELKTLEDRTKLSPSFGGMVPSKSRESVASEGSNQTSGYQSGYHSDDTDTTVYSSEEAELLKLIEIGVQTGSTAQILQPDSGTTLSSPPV

The TGI is how far tumour growth fell short of that in controls. Read a low TGI as a weaker effect on the tumour. Broadly, the IC50 is the concentration that gives 50% inhibition. `Cn1cc(-c2nccc(Oc3ccc(NC(=O)Nc4ccc(Cl)c(C(F)(F)F)c4)cc3)c2Cl)cn1` [Example 2, 1-(4-chloro-3-(trifluoromethyl)phenyl)-3-(4-(3-chloro-2-(1-methyl-pyrazol-4-yl)-pyridin-4-yl-oxy)phenyl)urea]: the “Tumor weight Mean ± S.E” value was 37 ± 20 mg in assay [1] (10 mg/kg po), 32 ± 15 mg in assay [1] (20 mg/kg po) and 16 ± 12 mg in assay [1] (40 mg/kg po). Also, the TGI in assay [1] (10 mg/kg po) turned out to be 82%; in assay [1] (20 mg/kg po), 85%; in assay [1] (40 mg/kg po), 92%; in the assay on HCT116 xenograft (10 mg/kg po), 84.1%; in the assay with HCT116 xenograft (20 mg/kg po), 89.1%; in the assay on HCT116 xenograft (40 mg/kg po), 92%. Moreover, the TGI in the assay on HCT116 xenograft (40 mg/kg po, listed as FD-2013018) is recorded as 92.0%. In addition, the “Tumor weight (D27) Mean ± S.E” value with HCT116 xenograft (10 mg/kg po) is on record as 0.153 ± 0.078 g; in the assay with HCT116 xenograft (20 mg/kg po) it was 0.104 ± 0.035 g; in the assay on HCT116 xenograft (40 mg/kg po), 0.077 ± 0.043 g. The same molecule came in with an IC50 against VEGFR2 (ATP 5 μM, 20 minutes, room temperature) of 55.5 nM. In addition, at VEGFR2 (VEGFR2 kinase), the “inhibitory activity as fold of that of Comparative compound 2” value was found to be 3.4 fold. The “inhibitory activity as fold of that of Sorafenib” value on VEGFR2 (VEGFR2 kinase) amounted to 1.61 fold. Besides, the “IC50 value as fold of that of Comparative compound 2” value on VEGFR2 (VEGFR2 kinase, ratio of IC50) amounted to 0.34 fold. The “IC50 value as fold of that of Sorafenib (free base)” value at VEGFR2 (VEGFR2 kinase, ratio of IC50) is given as 0.62 fold.

These data come from patent US9902709B2, “Polysubstituted pyridine compound, preparation method, use and pharmaceutical composition” (PEKING UNIVERSITY FOUNDER GROUP CO., LTD., priority 2014, dated 2018).
